From ChEMBL document CHEMBL1141877 (J Med Chem, 2005)

Legend:
[1] = biological target: Butyrylcholinesterase (Rattus norvegicus, UniProt Q9JKC1); experiment: Inhibitory concentration against butyrylcholinesterase of rat serum
[2] = biological target: T1, Acetylcholinesterase (Rattus norvegicus, UniProt P37136); experiment: Inhibitory concentration against acetylcholinesterase of rat cortex homogenate
T1 sequence (P37136 whole entry): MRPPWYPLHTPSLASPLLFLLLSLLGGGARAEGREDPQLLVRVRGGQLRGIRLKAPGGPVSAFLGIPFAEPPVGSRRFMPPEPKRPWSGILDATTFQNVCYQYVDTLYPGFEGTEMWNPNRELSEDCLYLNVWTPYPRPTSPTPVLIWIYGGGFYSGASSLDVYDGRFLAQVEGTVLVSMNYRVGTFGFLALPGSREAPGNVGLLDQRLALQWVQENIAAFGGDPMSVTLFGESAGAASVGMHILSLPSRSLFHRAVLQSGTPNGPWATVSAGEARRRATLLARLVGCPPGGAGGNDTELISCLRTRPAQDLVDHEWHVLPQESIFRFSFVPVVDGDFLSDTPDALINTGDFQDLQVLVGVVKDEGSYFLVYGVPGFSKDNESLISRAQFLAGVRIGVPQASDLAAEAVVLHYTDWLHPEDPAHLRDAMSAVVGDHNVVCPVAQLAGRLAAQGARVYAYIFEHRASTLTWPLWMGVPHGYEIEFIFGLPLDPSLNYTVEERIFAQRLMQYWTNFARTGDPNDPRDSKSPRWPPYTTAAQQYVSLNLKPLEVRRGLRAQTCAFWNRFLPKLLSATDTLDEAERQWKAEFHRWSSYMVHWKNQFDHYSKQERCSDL

Butyrylcholinesterase, sequence (Q9JKC1 whole entry): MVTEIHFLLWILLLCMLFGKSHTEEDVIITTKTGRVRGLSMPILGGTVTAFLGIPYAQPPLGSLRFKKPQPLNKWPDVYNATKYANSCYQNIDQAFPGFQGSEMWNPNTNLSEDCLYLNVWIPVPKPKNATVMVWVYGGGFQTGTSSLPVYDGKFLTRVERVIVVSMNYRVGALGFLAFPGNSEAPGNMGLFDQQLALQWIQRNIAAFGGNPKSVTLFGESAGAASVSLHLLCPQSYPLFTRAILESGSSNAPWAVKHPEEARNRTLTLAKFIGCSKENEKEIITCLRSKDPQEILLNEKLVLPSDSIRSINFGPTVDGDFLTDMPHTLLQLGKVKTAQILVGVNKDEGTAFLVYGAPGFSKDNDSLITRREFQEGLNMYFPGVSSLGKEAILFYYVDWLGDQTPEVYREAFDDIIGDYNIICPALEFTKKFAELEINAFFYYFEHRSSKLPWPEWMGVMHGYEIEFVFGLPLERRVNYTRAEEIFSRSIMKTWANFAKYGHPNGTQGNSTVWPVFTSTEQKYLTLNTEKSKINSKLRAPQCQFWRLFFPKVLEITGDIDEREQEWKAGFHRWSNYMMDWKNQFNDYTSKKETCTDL

CC1=C[C@H]2Cc3[nH]c(=O)ccc3[C@]3(C1)NCCC[C@H]23 [HUPERZINE B]
IC50 [1]: 227 µM | IC50 [2]: 19.3 µM

CC1=CC2Cc3[nH]c(=O)ccc3[C@@]3(C1)[C@@H]2CCCN3C(=O)CCN(C)CCCCCCCCCCN(C)CCC(=O)N1CCC[C@@H]2C3C=C(C)C[C@]21c1ccc(=O)[nH]c1C3 [BIS(18)-HUPERZINE B]
IC50 [1]: 54.3 µM | IC50 [2]: 0.00493 µM

CC1=CC2Cc3[nH]c(=O)ccc3[C@@]3(C1)[C@@H]2CCCN3C(=O)CN(C)CCCCCCN(C)CC(=O)N1CCC[C@@H]2C3C=C(C)C[C@]21c1ccc(=O)[nH]c1C3 [BIS(12)-HUPERZINE B]
IC50 [1]: 64.5 µM | IC50 [2]: 0.0762 µM

CC1=CC2Cc3[nH]c(=O)ccc3[C@@]3(C1)[C@@H]2CCCN3C(=O)CN(C)CCCCCCCCN(C)CC(=O)N1CCC[C@@H]2C3C=C(C)C[C@]21c1ccc(=O)[nH]c1C3
IC50 [1]: 65.4 µM | IC50 [2]: 0.0508 µM

CC1=CC2Cc3[nH]c(=O)ccc3[C@@]3(C1)[C@@H]2CCCN3C(=O)CCN(C)CCCCCCCCCCCCN(C)CCC(=O)N1CCC[C@@H]2C3C=C(C)C[C@]21c1ccc(=O)[nH]c1C3 [BIS(20)-HUPERZINE B]
IC50 [1]: 88.4 µM | IC50 [2]: 0.0252 µM

CC1=CC2Cc3[nH]c(=O)ccc3[C@@]3(C1)[C@@H]2CCCN3C(=O)CN(C)CCN(C)CC(=O)N1CCC[C@@H]2C3C=C(C)C[C@]21c1ccc(=O)[nH]c1C3 [BIS(8)-HUPERZINE B]
IC50 [2]: 1.02 µM

CC1=CC2Cc3[nH]c(=O)ccc3[C@@]3(C1)[C@@H]2CCCN3C(=O)CCN(C)CCCCCCN(C)CCC(=O)N1CCC[C@@H]2C3C=C(C)C[C@]21c1ccc(=O)[nH]c1C3
IC50 [1]: 67.9 µM | IC50 [2]: 0.0359 µM

CC1=CC2Cc3[nH]c(=O)ccc3[C@@]3(C1)[C@@H]2CCCN3C(=O)CN(C)CCCN(C)CC(=O)N1CCC[C@@H]2C3C=C(C)C[C@]21c1ccc(=O)[nH]c1C3 [BIS(9)-HUPERZINE B]
IC50 [1]: 60 µM | IC50 [2]: 0.471 µM

CC1=CC2Cc3[nH]c(=O)ccc3[C@@]3(C1)[C@@H]2CCCN3C(=O)CCN(C)CCCCCCCCN(C)CCC(=O)N1CCC[C@@H]2C3C=C(C)C[C@]21c1ccc(=O)[nH]c1C3 [BIS(16)-HUPERZINE B]
IC50 [1]: 63 µM | IC50 [2]: 0.0185 µM
